Reference: patent publication US20220227765A1, “PYRIDO-INDOLE ANALOGUES AS GPX4 INHIBITORS” (Ferro Therapeutics, Inc., priority 2019, published 2022)
Where two headings read alike, the source gives them in different places.

How the values were obtained:
Assay type in all cases: cell-based, human
786-O = assay: Cell proliferation (Alamar Blue) assay, 786-O
Method: (§1) Cell viability assay was performed to assess the potency of the compounds in human cancer cell lines 786-0 (renal cell carcinoma) and SJSA-1 (osteosarcoma). Additional cell lines, such as pancreatic cancer cell lines (Panc 02.13, BxPC-3, Panc 12, Panc 02.03, Panc 6.03, PSN-1, HPAC, and Capan-1), prostate cancer cell lines (PC-3, DU145, 22Rv1, NCI-H660, BPH1, LNCaP, BM-1604, and MDA PCa 2b), etc., can be tested in a similar method.
(§2) Cells (SJSA-1, 786-0 and A431) were seeded (5000 cells/100 μL/well) in 96-well tissue culture plate and incubated at 37° C./5% CO2 for 16-24 hours. The cells were then treated with compounds (25 μL of 5×). The compound concentrations were 10-0.0005 μM prepared in 3-fold serial dilutions with final DMSO concentration of 1%. The plates were then incubated for 24 h at 37° C./5% CO2 in a moist environment. Then Alamar Blue™ reagent (final concentration 1×-12.5 μL) was added to each well and incubated for 1.5 hours at 37° C./5% CO2. The plates were read on fluorescence reader at 540 nm excitation and 590 nm emission wavelengths. The IC50 values were subsequently determined using a sigmoidal dose-response curve (variable slope) in GraphPad Prism® 5 software. Table A-3, Table B-3 and Table C-3 show cell proliferation data for certain compounds as described herein.

A431 = assay: Cell proliferation (Alamar Blue) assay, A431
Method: as §1, §2

SJSA-1 = assay: Cell proliferation (Alamar Blue) assay, SJSA-1
Method: as §1, §2

[1] = Homo sapiens, 786-0, 24 h, Table A-3, 786-O cells
[2] = Homo sapiens, A-431, 24 h, Table A-3, A431 cells
[3] = Homo sapiens, SJSA-1, 24 h, Table A-3, SJSA-1 cells, 24 h, read-out: IC50 (μM) SJSA-1
[4] = Homo sapiens, 786-0, 24 h, Table B-3, 786-O cells
[5] = Homo sapiens, A-431, 24 h, Table B-3, A431 cells
[6] = Homo sapiens, SJSA-1, 24 h, Table B-3, head prints SJSB-1, 24 h, read-out: IC50 (μM) SJSB-1
[7] = Table B-3, head prints SJSB-1, 24 h, read-out: IC50 (μM) SJSB-1
[8] = Homo sapiens, 786-0, 24 h, Table C-3, 786-O cells
[9] = Homo sapiens, SJSA-1, 24 h, Table C-3, SJSA-1 cells, 24 h, read-out: IC50 (μM) SJSA-1
[10] = Homo sapiens, A-431, 24 h, Table C-3, A431 cells

SMILES	IC50 (786-O; [4])	IC50 (A431; [5])	IC50 (SJSA-1; [6])	other results
C[C@H]1Cc2c([nH]c3ncccc23)[C@H](c2ccc(F)cc2)N1C(=O)CCl [Compound A-1]				IC50 (786-O; [1]): 0.03 µM; IC50 (A431; [2]): > 10 µM; IC50 (SJSA-1; [3]): 0.145 µM
C[C@H]1Cc2c([nH]c3ncccc23)[C@@H](c2ccc(F)cc2)N1C(=O)CCl [Compound A-2]				IC50 (786-O; [1]): 3.52 µM; IC50 (A431; [2]): 7.06 µM; IC50 (SJSA-1; [3]): 9.11 µM
C#CC(=O)N1[C@@H](CCCC)Cc2c([nH]c3ncccc23)[C@@H]1c1ccc(F)cc1 [Compound A-3]				IC50 (786-O; [1]): 0.017 µM; IC50 (A431; [2]): 8.36 µM; IC50 (SJSA-1; [3]): 0.017 µM
C#CC(=O)N1[C@@H](CCCC)Cc2c([nH]c3ncccc23)[C@@H]1c1ccc(NC23CC4CC(CC(C4)C2)C3)cc1 [Compound A-7]				IC50 (786-O; [1]): 0.034 µM; IC50 (A431; [2]): 4.88 µM; IC50 (SJSA-1; [3]): 0.058 µM
CCCC[C@H]1Cc2c([nH]c3ccccc23)[C@H](c2ccc(C(=O)NC34CC5CC(CC(C5)C3)C4)cc2)N1C(=O)CCl [Compound B-1, N-((1R,3R)-adamantan-1-yl)-4-((1S,3S)-3-butyl-2-(2-chloroacetyl)-2,3,4,9-tetrahydro-1H-pyrido[3,4-b]indol-1-yl)benzamide]	0.001 µM	2.7 µM	0.003 µM	
C#CC(=O)N1[C@@H](CCCC)Cc2c([nH]c3ccccc23)[C@@H]1c1ccc(-c2nc(C)no2)cc1 [Compound B-2, 1-((1S,3S)-3-butyl-1-(4-(3-methyl-1,2,4-oxadiazol-5-yl)phenyl)-1,3,4,9-tetrahydro-2H-pyrido[3,4-b]indol-2-yl)prop-2-yn-1-one]	0.006 µM	3.2 µM	0.014 µM	
C#CC(=O)N1[C@@H](CCCC)Cc2c([nH]c3ccccc23)[C@@H]1c1ccc(NC2CCC2)cc1 [Compound B-4, 1-((1S,3S)-3-butyl-1-(4-(cyclobutylamino)phenyl)-1,3,4,9-tetrahydro-2H-pyrido[3,4-b]indol-2-yl)prop-2-yn-1-one]	0.008 µM	5.9 µM	0.015 µM	
C#CC(=O)N1[C@@H](c2ccc(NC34CC5CC(CC(C5)C3)C4)cc2)c2[nH]c3ccccc3c2C[C@@H]1C(=O)OC [Compound B-6, methyl (1S,3R)-1-(4-(((3R,5R,7R)-adamantan-1-yl)amino)phenyl)-2-propioloyl-2,3,4,9-tetrahydro-1H-pyrido[3,4-b]indole-3-carboxylate]	0.024 µM	6.1 µM	0.024 µM	
C#CC(=O)N1[C@@H](CCCC)Cc2c([nH]c3ccccc23)[C@@H]1c1ccc(C(=O)NC23CC4CC(CC(C4)C2)C3)cc1 [Compound B-7, N-((3R,5R,7R)-adamantan-1-yl)-4-((1S,3S)-3-butyl-2-propioloyl-2,3,4,9-tetrahydro-1H-pyrido[3,4-b]indol-1-yl)benzamide]	0.002 µM	5.5 µM	0.002 µM	
COC(=O)[C@H]1Cc2c([nH]c3ccccc23)[C@H](c2ccc(N(C(=O)CCCC[C@@H]3SC[C@@H]4NC(=O)N[C@@H]43)C3CC3)cc2)N1C(=O)CCl [Compound B-8, methyl (1S,3R)-2-(2-chloroacetyl)-1-(4-(N-cyclopropyl-5-((3aS,4S,6aR)-2-oxohexahydro-1H-thieno[3,4-d]imidazol-4-yl)pentanamido)phenyl)-2,3,4,9-tetrahydro-1H-pyrido[3,4-b]indole-3-carboxylate]	1.7 µM		1.9 µM	
COC(=O)[C@H]1Cc2c([nH]c3ccccc23)[C@@H](c2ccc(N(C(=O)CCCC[C@@H]3SC[C@@H]4NC(=O)N[C@@H]43)C3CC3)cc2)N1C(=O)CCl [Compound B-9, methyl (1R,3R)-2-(2-chloroacetyl)-1-(4-(N-cyclopropyl-5-((3aS,4S,6aR)-2-oxohexahydro-1H-thieno[3,4-d]imidazol-4-yl)pentanamido)phenyl)-2,3,4,9-tetrahydro-1H-pyrido[3,4-b]indole-3-carboxylate]	> 10 µM		> 10 µM	
C#CC(=O)N1[C@@H](CCCC)Cc2c([nH]c3ccc(F)cc23)[C@@H]1c1ccc(C(=O)NCCOC)cc1 [Compound B-11]	0.008 µM	4.3 µM	0.025 µM	
C#CC(=O)N1[C@@H](CCCC)Cc2c([nH]c3ccccc23)[C@@H]1c1ccc(NC2CCS(=O)(=O)CC2)cc1 [Compound B-13]	0.013 µM	7.2 µM	0.018 µM	
CCCC[C@H]1Cc2c([nH]c3ccccc23)[C@H](c2ccc(NC(=O)c3ccncc3)cc2)N1C(=O)CCl [Compound B-14]	0.015 µM	3 µM	0.019 µM	
C#CC(=O)N1[C@@H](CCCC)Cc2c([nH]c3ccccc23)[C@@H]1c1ccc(NC(=O)c2ccncc2)cc1 [Compound B-15]	0.013 µM	> 10 µM	0.029 µM	
C#CC(=O)N1[C@@H](CCCC)Cc2c([nH]c3ccccc23)[C@@H]1c1ccc(C(=O)NCC2(O)CCC2)cc1 [Compound B-16]	0.007 µM	6.4 µM	0.029 µM	
C#CC(=O)N1[C@@H](CCCC)Cc2c([nH]c3ccccc23)[C@@H]1c1ccc(NC23CC4CC(CC(C4)C2)C3)cc1 [Compound B-17]				IC50 (786-O; Table B-3, 786-O cells, 24 h): 0.006 µM; IC50 (A431; Table B-3, A431 cells, 24 h): 3.6 µM; IC50 (SJSA-1; [7]): 0.008 µM
C#CC(=O)N1[C@@H](CCCC)Cc2c([nH]c3ccccc23)[C@@H]1c1ccc(NC23CC4CC(CC(O)(C4)C2)C3)cc1 [Compound B-44]	0.006 µM		0.014 µM	
C#CC(=O)N1[C@@H](CCCC)Cc2c([nH]c3ccccc23)[C@@H]1c1ccc(N2C3CCC2COC3)cc1 [Compound B-66, 1-((1 S,3 S)-1-(4-(3-oxa-8-azabicyclo[3.2.1]octan-8-yl)phenyl)-3-butyl-1,3,4,9-tetrahydro-2H-pyrido[3,4-b]indol-2-yl)prop-2-yn-1-one]		4.35 µM		
C#CC(=O)N1[C@@H](CCCC)Cc2c([nH]c3c(F)cc(F)cc23)[C@@H]1C1CCN(C(=O)OC)CC1 [Compound B-75]				IC50 (786-O; Table B-3, 786-O cells, 24 h): 0.03 µM; IC50 (SJSA-1; [7]): 0.06 µM
C#CC(=O)N1[C@@H](CCCC)Cc2c([nH]c3c(F)cc(F)cc23)[C@@H]1C12CC(NC(=O)OCCCCC)(C1)C2 [Compound B-84]	0.086 µM		0.084 µM	
C#CC(=O)N1[C@@H](CCCC)Cc2c([nH]c3c(F)cc(F)cc23)[C@@H]1c1ccc(NC(=O)OCCCCC)cc1 [Compound B-91]				IC50 (786-O; Table B-3, 786-O cells, 24 h): 0.076 µM; IC50 (SJSA-1; [7]): 0.075 µM
C#CC(=O)N1[C@@H](CCCC)Cc2c(n(C)c3c(F)cc(F)cc23)[C@@H]1c1ccc(NC(=O)OCCCCC)cc1 [Compound B-96]	0.08 µM		0.293 µM	
C#CC(=O)N1[C@@H](CCCC)Cc2c(n(CC(O)CO)c3c(F)cc(F)cc23)[C@@H]1c1ccc(NC(=O)OCCCCC)cc1 (some centres unmarked) [Compound B-98]	0.181 µM	> 10 µM		
C#CC(=O)N1[C@@H](CCCC)Cc2c(oc3ccccc23)[C@@H]1c1ccc(NC(=O)OCCCCC)cc1 [Compound B-101]	0.155 µM	7.97 µM		
C[C@H]1Cc2c([nH]c3ccccc23)[C@](C)(c2ccc(F)cc2)N1C(=O)CCl [Compound C-18]				IC50 (786-O; [8]): 0.437 µM; IC50 (SJSA-1; [9]): 0.332 µM
C#CC(=O)N1CCc2c([nH]c3ccccc23)C1(C)c1ccc(F)cc1 (centres unmarked) [Compound C-19]				IC50 (786-O; [8]): 2.32 µM; IC50 (SJSA-1; [9]): 1.89 µM
CC1(c2ccc(F)cc2)c2[nH]c3ccccc3c2CCN1C(=O)CCl (centres unmarked) [Compound C-20]				IC50 (786-O; [8]): 4.49 µM; IC50 (SJSA-1; [9]): 3.98 µM
C#CC(=O)N1[C@@H](CCCC)Cc2cc(OC)ccc2[C@]1(C)c1ccc(NC23CC4CC(CC(C4)C2)C3)cc1 [Compound C-35]				IC50 (786-O; [8]): 0.45 µM; IC50 (A431; [10]): > 10 µM
C#CC(=O)N1[C@@H](CCCC)Cc2cc(OC)ccc2[C@@]1(C)c1ccc(NC23CC4CC(CC(C4)C2)C3)cc1 [Compound C-36]				IC50 (786-O; [8]): 0.69 µM; IC50 (A431; [10]): > 10 µM
